Each block holds one compound with its values, some of them ahead of it.
Assays:
[1] = tested on: subjects with Seasonal Allergic Rhinitis (SAR) and Post-Nasal Drip; assay: Phase II randomized, double-blind, placebo controlled study: symptom scores (post nasal drip, anterior rhinorrhea, total symptom score); settings: for least square mean change from baseline in the average AM/PM PRIOR post nasal drip score, percent / least square mean change from baseline in the average AM/PM PRIOR post nasal drip score: 7-day Treatment Phase, Oxy 5 mg BID, combinations given concurrently BID; for least square mean change from baseline in the average AM/PM PRIOR post nasal drip score: all randomized subjects; for anterior rhinorrhea treatment difference vs. placebo: key secondary efficacy variable, BID, DL 2.5 mg, Oxy 5 mg
Text: (§1) The total target enrollment was 500 subjects with 100 per arm. The study consisted of a 7-day Treatment Phase.
The primary efficacy variable was the change from baseline in the average AM/PM PRIOR post nasal drip score over the Treatment Phase of 7 days. The analysis was based on a main effect analysis of variance (ANOVA), which extracted sources of variation due to treatment and center. […] Pairwise treatment comparisons were examined using the 95% confidence intervals of the treatment differences at an unadjusted 2-sided alpha-level of 0.05.
After the examination of post nasal drip, the key secondary efficacy variable, anterior rhinorrhea, was examined in the same manner.
There were 38 subjects excluded from the efficacy evaluable subset. A majority of these subjects were excluded due to insufficient efficacy data. Determination of evaluability was perfomed prior to unblinding the database. Though the treatment duration specified in the protocol was 7 days, about 70% of subjects also completed their diary on the AM of Day 8 since the final office visit was scheduled on that day. Therefore, the AM Day 8 data were included in the calculation of the one-week average.
The primary efficacy variable was the change from baseline in the average AM/PM PRIOR post nasal drip score over the Treatment Phase of 7 days.

[2] = DL 2.5 mg BID, Oxy 5 mg BID, combinations BID; 7 days
Text: as §1

[3] = tested on: secretions of natural tear components; settings: preclinical testing, reportedly; cited from earlier work
[4] = tested on: symptoms most closely associated with chronic nasal congestion (e.g., stuffy nose); settings: reportedly; cited from earlier work

Structure (SMILES): Clc1ccc2c(c1)CCc1cccnc1C2=C1CCNCC1 [DL, desloratadine]
least square mean change from baseline in the average AM/PM PRIOR post nasal drip score, percent ([1]; DL 2.5 mg BID): −24.8%
least square mean change from baseline in the average AM/PM PRIOR post nasal drip score ([1]; DL 2.5 mg BID): −0.68
total symptom score excluding post nasal drip, treatment difference vs. placebo ([1]; DL 2.5 mg BID, 7 days): 0.71 point
anterior rhinorrhea treatment difference vs. placebo ([1]; 7 days): 0.03 points

discontinuation rate from the treatment phase [2]: 5.56%
percentage of subjects reporting dry mouth [2]: 13.9%
subjects reporting dry mouth [2]: 15 subjects
Structure (SMILES): CCN(CC)CC#CCOC(=O)C(O)(c1ccccc1)C1CCCCC1 (centres unmarked) [Oxy, Oxybutynin]
percentage of subjects reporting any treatment emergent adverse events [2]: 30.6%
subjects reporting any treatment emergent adverse events [2]: 33 subjects
least square mean change from baseline in the average AM/PM PRIOR post nasal drip score, percent ([1]; DL 2.5 mg BID): −17.8%
least square mean change from baseline in the average AM/PM PRIOR post nasal drip score ([1]; DL 2.5 mg BID): −0.49
anterior rhinorrhea treatment difference vs. placebo ([1]; 7 days): 0.04 points

Structure (SMILES): O=c1ccn([C@@H]2O[C@H](COP(=O)(O)OP(=O)(O)OP(=O)(O)OP(=O)(O)OC[C@H]3O[C@@H](n4ccc(=O)[nH]c4=O)[C@H](O)[C@@H]3O)[C@@H](O)[C@H]2O)c(=O)[nH]1 [diquafosol, Diquafosol tetrasodium]
secretions of natural tear components [3]: increased

Structure (SMILES): Oc1cccc(Nc2ncc(F)c(Nc3cccc(O)c3)n2)c1 [R112]
absolute difference over placebo [4]: 9%
improvement from baseline measurements (prior to drug initiation) [4]: up to 38%
relative improvement over placebo [4]: greater than 20%
symptoms most closely associated with chronic nasal congestion (e.g., stuffy nose), over placebo [4]: improved
